Measurements: patent US20230242544A1, “QUINAZOLINE COMPOUNDS, PREPARATION METHODS AND USES THEREOF” (INVENTISBIO CO., LTD., priority 2020, published 2023)

Key:
Ba/F3_KRAS^G12D cells = Ba/F3_KRAS^G12D cells (Homo sapiens, UniProt P01116, G12D, cells depend on it); assay: Ba/F3 KRAS G12D cell proliferation assay (CellTiter-Glo); assay type: cell-based; conditions: treated for 3 days, cell-titer Glo, cell growth inhibition, read-out: BaF3_KRAS^G12D IC50
Description: Ba/F3_KRAS^G12D cells (KYinno, China) were generated by transducing Ba/F3 parental cells with the recombinant KRAS^G12D lentivirus and followed by 1 ug/mL of puromycin selection and IL3 depletion. […] Cells were seeded at a density of 5×10^3 per well into 96-well plate and incubated overnight. Serial diluted compounds were added to each well. Cells were treated with the compounds for 3 days, after which cell-titer Glo reagent (Promega #G7572) was used to assess cell proliferation. The luminescence signal was then collected on Tecan Spark plate reader. […] Cell growth inhibition of IC50 is calculated with the equation of Y=Bottom+(Top−Bottom)/(1+10^((Log IC50−X)*Hill Slope))

[1] = molecular target: recombinant human KRAS^G12D protein (Homo sapiens, UniProt P01116, G12D); assay: Temperature-dependent Fluorescence (TdF) KRAS G12D protein binding assay; conditions: 6 μM KRAS^G12D protein, 10 μM compound, Sypro Orange; Kd calculated from the fluorescent shift
Description: The Temperature-dependent Fluorescence (TdF) assay was used to analyze binding affinity of compound to recombinant human KRAS^G12D protein. The TdF assay was conducted in the 96-well-based real-time fluorescence plate reader (ABI 7500 or Roche LightCycler 480). Fluorescent dye Sypro Orange (Sigma) was used to monitor the protein folding-unfolding transition. Protein-compound binding was gauged by the shift in the unfolding transition temperature (ΔTm) acquired with and without compound. Each reaction sample consists of 6 μM KRAS^G12D Protein, 10 μM compound, and Sypro Orange dye (in 1% DMSO) in 20 μL reaction buffer (25 mM HEPES pH 7.5, 150 mM NaCl, 10 mM MgCl2). […] Binding affinity (Kd value) was calculated based on the degree of fluorescent shift of the protein with and without compound.

Chain of recombinant human KRAS^G12D protein (P01116 1-188 isoform P01116-2 G12D): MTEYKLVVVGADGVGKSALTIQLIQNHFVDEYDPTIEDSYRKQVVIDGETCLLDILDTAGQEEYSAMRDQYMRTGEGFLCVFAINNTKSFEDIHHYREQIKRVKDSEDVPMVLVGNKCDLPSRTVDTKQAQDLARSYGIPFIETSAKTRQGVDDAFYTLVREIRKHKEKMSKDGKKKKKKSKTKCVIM
Chain of Ba/F3_KRAS^G12D cells (P01116 whole entry G12D): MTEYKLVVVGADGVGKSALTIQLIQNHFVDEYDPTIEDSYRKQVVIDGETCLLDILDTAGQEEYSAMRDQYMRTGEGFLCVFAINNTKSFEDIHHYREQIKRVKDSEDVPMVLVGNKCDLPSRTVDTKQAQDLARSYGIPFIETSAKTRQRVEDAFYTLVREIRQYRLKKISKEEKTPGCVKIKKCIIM

| GI50 (Ba/F3_KRAS^G12D cells) | Kd [1] | Compound |
| --- | --- | --- |
| 0.5 to 5 µM | > 5 µM | Oc1cc(-c2c(Cl)cc3c(N4CCNCC4)nc(OCC45CCCN4CCC5)nc3c2F)c2ccccc2c1 [Compound 29] |
| > 5 µM | 0.5 to 5 µM | Oc1ccc2ccccc2c1-c1c(Cl)cc2c(N3CC4CCC(C3)N4)nc(OCC34CCCN3CCC4)nc2c1F [Compound 70] |
| 0.5 to 5 µM | < 0.5 µM | Oc1cc(-c2c(Cl)cc3c(N4CC5CCC(C4)N5)nc(OCC45CCCN4CC(F)(F)C5)nc3c2F)c2ccccc2c1 (stereo not drawn) [Compound 81] |
| 0.5 to 5 µM | > 5 µM | CN(C)CC1CN(c2nc(N3CC4CCC(C3)N4)c3cc(Cl)c(-c4cc(O)cc5ccccc45)c(F)c3n2)C1 [Compound 51] |
| 0.5 to 5 µM | > 5 µM | CN1CCC[C@H]1COc1nc(N2CCNCC2)c2cc(Cl)c(-c3cc(O)cc4ccccc34)c(F)c2n1 [Compound 1] |
| 0.5 to 5 µM | < 0.5 µM | Nc1nc2c(-c3c(Cl)cc4c(N5CC6CCC(C5)N6)nc(OC[C@@]56CCCN5C[C@H](F)C6)nc4c3F)ccc(C(F)(F)F)c2s1 [Compound 143] |
| < 0.5 µM | < 0.5 µM | Oc1cc(-c2c(Cl)cc3c(N4CC5CCC(C4)N5)nc(OC[C@@]45CCCN4C[C@H](F)C5)nc3c2F)c2ccccc2c1 (single isomer, unassigned) [Compound 107] |
| 0.5 to 5 µM |  | CCOc1cc2c(N3CC4CCC(C3)N4)nc(OC[C@@]34CCCN3C[C@H](F)C4)nc2c(F)c1-c1cc(O)cc2ccc(F)c(CC)c12 [Compound 159] |
| 0.5 to 5 µM | > 5 µM | C[C@H]1CNCCN1c1nc(OC[C@@H]2CCCN2C)nc2c(F)c(-c3cc(O)cc4cccc(Cl)c34)c(Cl)cc12 [Compound 22] |
| 0.5 to 5 µM | > 5 µM | CN1CC2CN(c3nc(N4CC5CCC(C4)N5)c4cc(Cl)c(-c5cc(O)cc6ccccc56)c(F)c4n3)CC2C1 (stereo not drawn) [Compound 40] |
| < 0.5 µM | < 0.5 µM | Oc1cc(-c2c(Cl)cc3c(N4CC5CCC(C4)N5)nc(OC[C@@]45CCCN4C[C@H](F)C5)nc3c2F)c2c(Cl)cccc2c1 [Compound 58] |
| < 0.5 µM | < 0.5 µM | CCc1cccc2cc(O)cc(-c3c(Cl)cc4c(N5CC6CCC(C5)N6)nc(OC[C@@]56CCCN5C[C@H](F)C6)nc4c3F)c12 (racemic) [Compound 77] |
| > 5 µM |  | N#Cc1cc2c(N3CC4CCC(C3)N4)nc(OC[C@@]34CCCN3C[C@H](F)C4)nc2c(F)c1-c1c(O)cccc1F [Compound 90] |
| > 5 µM | > 5 µM | CN(C)CCCOc1nc(N2CC3CCC(C2)N3)c2cc(Cl)c(-c3c(O)cccc3F)c(F)c2n1 [Compound 8] |
| < 0.5 µM |  | C#Cc1c(F)ccc2cc(O)cc(-c3ccc4c(N5CC6CCC(C5)N6)nc(OC[C@@]56CCCN5C[C@H](F)C6)nc4c3F)c12 [Compound 170] |
| > 5 µM | < 0.5 µM | CNC(=O)c1cc2c(N3CC4CCC(C3)N4)nc(OC[C@@]34CCCN3C[C@H](F)C4)nc2c(F)c1-c1cc(O)cc2cccc(Cl)c12 [Compound 122] |
| 0.5 to 5 µM | > 5 µM | C[C@@H]1CN(c2nc(OC[C@@]34CCCN3C[C@H](F)C4)nc3c(F)c(-c4cc(O)cc5ccccc45)c(Cl)cc23)[C@@H](C)CN1 [Compound 128] |
| < 0.5 µM |  | CCOc1cc2c(N3CC4CCC(C3)N4)nc(OC[C@@]34CCCN3C[C@H](F)C4)nc2c(F)c1-c1cc(O)cc2ccc(F)c(CC)c12 [Compound 158] |
| < 0.5 µM | < 0.5 µM | C#Cc1c(F)ccc2cc(O)cc(-c3c(Cl)cc4c(N5CC6CCC(C5)N6)nc(OC[C@@]56CCCN5C[C@H](F)C6)nc4c3F)c12 (single isomer, unassigned) [Compound 154] |
| < 0.5 µM | > 5 µM | Fc1c(-c2cccc3cccc(Cl)c23)c(Cl)cc2c(N3CCNCC3)nc(OCC34CCCN3CCC4)nc12 [Compound 28] |
| 0.5 to 5 µM | < 0.5 µM | Oc1cc(-c2c(Cl)cc3c(N4C5CCC4CNC5)nc(OCC45CCCN4CCC5)nc3c2F)c2ccccc2c1 [Compound 33] |
| 0.5 to 5 µM |  | CN1CCC(Oc2nc(N3CC4CCC(C3)N4)c3cc(Cl)c(-c4cc(O)cc5ccccc45)c(F)c3n2)CC1 [Compound 38] |
| 0.5 to 5 µM | 0.5 to 5 µM | CN1CC(COc2nc(N3CC4CCC(C3)N4)c3cc(Cl)c(-c4cc(O)cc5ccccc45)c(F)c3n2)CC(F)(F)C1 (stereo not drawn) [Compound 50] |
| 0.5 to 5 µM | 0.5 to 5 µM | Fc1c(-c2cccc3cccc(Cl)c23)c(Cl)cc2c(N3C4CCC3CNC4)nc(OCC34CCCN3CCC4)nc12 [Compound 72] |
|  | 0.5 to 5 µM | Oc1cccc(F)c1-c1c(Cl)cc2c(N3CC4CCC(C3)N4)nc(OCC34CCCN3CCC4)nc2c1F [Compound 63] |

| GI50 (Ba/F3_KRAS^G12D cells) | Kd [1] | Compound |
| --- | --- | --- |
| < 0.5 µM |  | CCOc1cc2c(N3CC4CCC(C3)N4)nc(OC[C@@]34CCCN3C[C@H](F)C4)nc2c(F)c1-c1cc(O)cc2cccc(CC)c12 [Compound 156] |
| < 0.5 µM |  | C#Cc1c(F)ccc2cc(O)cc(-c3c(F)cc4c(N5CC6CCC(C5)N6)nc(OC[C@@]56CCCN5C[C@H](F)C6)nc4c3F)c12 (single isomer, unassigned) [Compound 165] |
| < 0.5 µM |  | C#Cc1c(F)ccc2cc(O)cc(-c3cc(OC(C)C)c4c(N5CC6CCC(C5)N6)nc(OC[C@@]56CCCN5C[C@H](F)C6)nc4c3F)c12 [Compound 169] |
|  | < 0.5 µM | Oc1cc(-c2c(Cl)cc3c(N4CC5CCC(C4)N5)nc(OC[C@@]45CCCN4C[C@H](F)C5)nc3c2F)c2ccccc2c1 [Compound 68] |
| < 0.5 µM |  | CCc1c(F)ccc2cc(O)cc(-c3c(OC)cc4c(N5CC6CCC(C5)N6)nc(OC[C@@]56CCCN5C[C@H](F)C6)nc4c3F)c12 [Compound 164] |
|  | < 0.5 µM | N#Cc1cc2c(N3CC4CCC(C3)N4)nc(OC[C@@]34CCCN3C[C@H](F)C4)nc2c(F)c1-c1ccc(F)c2sc(N)nc12 [Compound 112] |
|  | > 5 µM | CN1CCC[C@H]1COc1nc(NC2CNC2)c2cc(Cl)c(-c3cc(O)cc4cccc(Cl)c34)c(F)c2n1 [Compound 15] |
| < 0.5 µM |  | C#Cc1c(F)ccc2cc(O)cc(-c3c(OCC)cc4c(N5CC6CCC(C5)N6)nc(OC[C@@]56CCCN5C[C@H](F)C6)nc4c3F)c12 [Compound 160] |
| < 0.5 µM |  | C#Cc1c(F)ccc2cc(O)cc(-c3cc(OC)c4c(N5CC6CCC(C5)N6)nc(OC[C@@]56CCCN5C[C@H](F)C6)nc4c3F)c12 [Compound 167] |
|  | < 0.5 µM | Oc1cc(-c2c(Cl)cc3c(N4CC5CCC(C4)N5)nc(OCC45CCCN4CCC5)nc3c2F)c2c(Cl)c(F)ccc2c1 [Compound 71] |
| 0.5 to 5 µM |  | CN1CCO[C@@H](COc2nc(N3CC4CCC(C3)N4)c3cc(Cl)c(-c4cc(O)cc5ccccc45)c(F)c3n2)C1 [Compound 37] |
| < 0.5 µM |  | CCc1c(F)ccc2cc(O)cc(-c3c(Cl)cc4c(N5CC6CCC(C5)N6)nc(OC[C@@]56CCCN5C[C@H](F)C6)nc4c3F)c12 (single isomer, unassigned) [Compound 148] |
|  | > 5 µM | CC(C)N1CCC(Oc2nc(N3CC4CCC(C3)N4)c3cc(Cl)c(-c4cc(O)cc5ccccc45)c(F)c3n2)C1 (stereo not drawn) [Compound 84] |
|  | > 5 µM | Cc1cc(N)nc(-c2c(SC(F)(F)F)cc3c(N4CCNC[C@@H]4C)nc(OC[C@@H]4CCCN4C)nc3c2F)c1C(F)(F)F [Compound 136] |
| 0.5 to 5 µM |  | CCOc1cc2c(N3CC4CCC(C3)N4)nc(OC[C@@]34CCCN3C[C@H](F)C4)nc2c(F)c1-c1cc(O)cc2cccc(CC)c12 [Compound 157] |
| < 0.5 µM |  | CCc1c(F)ccc2cc(O)cc(-c3c(C#N)cc4c(N5CC6CCC(C5)N6)nc(OC[C@@]56CCCN5C[C@H](F)C6)nc4c3F)c12 [Compound 149] |
|  | < 0.5 µM | N#Cc1cc2c(N3CC4CCC(C3)N4)nc(OCC34CCCN3CCC4)nc2c(F)c1-c1cc(O)cc2ccccc12 [Compound 73] |
|  | 0.5 to 5 µM | COc1nc(N2CC3CCC(C2)N3)c2cc(Cl)c(-c3ccc(F)c4sc(N)nc34)c(F)c2n1 [Compound 141] |
| < 0.5 µM |  | CCc1c(F)ccc2cc(O)cc(-c3c(Cl)cc4c(N5CC6CCC(C5)N6)nc(OC[C@@]56CCCN5C[C@H](F)C6)nc4c3F)c12 (single isomer, unassigned) [Compound 147] |
| > 5 µM |  | CN(C)CCCOc1nc(N2CC3CCC(C2)N3)c2cc(Cl)c(-c3c(N)cccc3F)c(F)c2n1 [Compound 9] |
| < 0.5 µM |  | CCc1c(F)ccc2cc(O)cc(-c3c(C#N)cc4c(N5CC6CCC(C5)N6)nc(OC[C@@]56CCCN5C[C@H](F)C6)nc4c3F)c12 [Compound 150] |
| < 0.5 µM |  | C#Cc1c(F)ccc2cc(O)cc(-c3c(OCC)cc4c(N5CC6CCC(C5)N6)nc(OC[C@@]56CCCN5C[C@H](F)C6)nc4c3F)c12 [Compound 161] |
| 0.5 to 5 µM |  | CN1CC(F)(F)CC1COc1nc(N2CC3CCC(C2)N3)c2cc(Cl)c(-c3cc(O)cc4ccccc34)c(F)c2n1 (stereo not drawn) [Compound 34] |
| < 0.5 µM |  | C#Cc1c(F)ccc2cc(O)cc(-c3c(OC)cc4c(N5CC6CCC(C5)N6)nc(OC[C@@]56CCCN5C[C@H](F)C6)nc4c3F)c12 [Compound 162] |
| < 0.5 µM |  | C#Cc1c(F)ccc2cc(O)cc(-c3c(Cl)cc4c(N5CC6CCC(C5)N6)nc(OC[C@@]56CCCN5C[C@H](F)C6)nc4c3F)c12 (single isomer, unassigned) [Compound 155] |
